The record followed here is patent publication US8642585B2, “Indanyloxydihydrobenzofuranylacetic acids” (Boehringer Ingelheim International GmbH, priority 2012, dated 2014).

Usually pEC50 stands for the negative decadic logarithm of the EC50, by convention in mol/L. High values mean a small EC50, low ones a large EC50.

The assay deals with human GPR40 receptor (Homo sapiens, UniProt O14842). Put plainly: Assay I: IP1 accumulation (IPOne HTRF) in 1321N1 cells stably expressing human GPR40. The assay is classed as cell-based. To be noted: 1321N1 cells expressing human GPR40, stimulation 1 hour at 37° C., 10% CO2, final LiCl 50 mM. On the procedure: IP1 accumulation measurements using the IPOne assay system—1321N1 cells stably expressing human GPR40 receptor (Euroscreen, Belgium) are seeded 24 h before the assay in black clear-bottom collagen-coated 384-well plates in culture medium containing 10% FCS, 1% Na-Pyruvate and 400 μg/mL G418. IP1 is assayed according to the Manufacturers description (Cisbio Bioassays, France). In brief, the assay is started by substitution of the culture medium by stimulation buffer (Hepes 10 mM, CaCl2 1 mM, MgCl2 0.5 mM, KCl 4.2 mM, NaCl 146 mM and glucose 5.5 mM, pH 7.4) without LiCl. Cells are stimulated for 1 hour at 37° C., 10% CO2 by addition of the compounds that are diluted in stimulation buffer containing LiCl yielding a final LiCl concentration of 50 mM. Assays are stopped by adding HTRF-conjugates (IP1-d2 and Anti-IP1 cryptate Tb) and lysis buffer, provided by the manufacturer. After an incubation time of 1 hour at room temperature plates are measured using an EnVision™, Perkin Elmer. The obtained fluorescence ratios at 665/615 nM are then used to calculate the pEC50 values using GraphPad Prism 5 (Graphpad Software Inc, USA) by interpolation using an IP1 reference curve and subsequent sigmoidal curve fitting allowing for a variable hill slope.
human GPR40 receptor, sequence (O14842 whole entry): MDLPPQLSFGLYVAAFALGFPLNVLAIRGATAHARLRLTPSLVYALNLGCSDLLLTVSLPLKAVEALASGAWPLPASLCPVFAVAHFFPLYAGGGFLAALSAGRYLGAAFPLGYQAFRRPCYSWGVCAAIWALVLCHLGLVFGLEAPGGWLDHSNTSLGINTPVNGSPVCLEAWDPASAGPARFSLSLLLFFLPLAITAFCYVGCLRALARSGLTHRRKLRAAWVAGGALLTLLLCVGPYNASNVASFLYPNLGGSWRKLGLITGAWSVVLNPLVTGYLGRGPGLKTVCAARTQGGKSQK
(In general: TR-FRET usually uses a lanthanide donor and a delayed reading to cut background.)

pEC50: −log10 of the molar value.

As to `Cc1cc(-c2cncnc2)cc(C)c1-c1ccc(F)c2c1CC[C@H]2Oc1ccc2c(c1)OC[C@H]2CC(=O)O` [Example 17, 2-((S)-6-((R)-4-(2,6-Dimethyl-4-(pyrimidin-5-yl)phenyl)-7-fluoro-2,3-dihydro-1H-inden-1-yloxy)-2,3-dihydrobenzofuran-3-yl)acetic acid], the pEC50 is 8.40.

Turning to `Cc1cc(-c2ncco2)cc(C)c1-c1ccc(F)c2c1CC[C@H]2Oc1ccc2c(c1)OC[C@H]2CC(=O)O` [Example 18, 2-((S)-6-((R)-4-(2,6-Dimethyl-4-(oxazol-2-yl)phenyl)-7-fluoro-2,3-dihydro-1H-inden-1-yloxy)-2,3-dihydrobenzofuran-3-yl)acetic acid], the negative-log EC50 (pEC50) was 8.40.

Compound `Cc1cc(-c2cnn(C)c2)cc(C)c1-c1ccc(F)c2c1CC[C@H]2Oc1ccc2c(c1)OC[C@H]2CC(=O)O` [Example 19, 2-((S)-6-((R)-4-(2,6-Dimethyl-4-(1-methyl-1H-pyrazol-4-yl)phenyl)-7-fluoro-2,3-dihydro-1H-inden-1-yloxy)-2,3-dihydrobenzofuran-3-yl)acetic acid] showed a pEC50 of 8.52.

Regarding `Cc1cc(-c2ccnn2C)cc(C)c1-c1ccc(F)c2c1CC[C@H]2Oc1ccc2c(c1)OC[C@H]2CC(=O)O` [Example 20, 2-((S)-6-((R)-4-(2,6-Dimethyl-4-(1-methyl-1H-pyrazol-5-yl)phenyl)-7-fluoro-2,3-dihydro-1H-inden-1-yloxy)-2,3-dihydrobenzofuran-3-yl)acetic acid], the pEC50 is 8.05.

Regarding `Cc1cc(OC(C)(C)C#N)cc(C)c1-c1ccc(F)c2c1CC[C@H]2Oc1ccc2c(c1)OC[C@H]2CC(=O)O` [Example 21, 2-((S)-6-((R)-4-(4-(2-Cyanopropan-2-yloxy)-2,6-dimethylphenyl)-7-fluoro-2,3-dihydro-1H-inden-1-yloxy)-2,3-dihydrobenzofuran-3-yl)acetic acid], the negative logarithm of the EC50 (pEC50) was 8.05.

Regarding `Cc1cc(OCC(C)(C)CN(C)C)cc(C)c1-c1ccc(F)c2c1CC[C@H]2Oc1ccc2c(c1)OC[C@H]2CC(=O)O` [Example 22, 2-((S)-6-((R)-4-(4-(3-(Dimethylamino)-2,2-dimethylpropoxy)-2,6-dimethylphenyl)-7-fluoro-2,3-dihydro-1H-inden-1-yloxy)-2,3-dihydrobenzofuran-3-yl)acetic acid], the pEC50 is 7.77.

With `Cc1cc(OCCN2CCCC2=O)cc(C)c1-c1ccc(F)c2c1CC[C@H]2Oc1ccc2c(c1)OC[C@H]2CC(=O)O` [Example 23, 2-((S)-6-((R)-4-(2,6-Dimethyl-4-(2-(2-oxopyrrolidin-1-yl)ethoxy)phenyl)-7-fluoro-2,3-dihydro-1H-inden-1-yloxy)-2,3-dihydrobenzofuran-3-yl)acetic acid], the pEC50 was 8.00.

Regarding `Cc1cc(C2=CCOCC2)cc(C)c1-c1ccc(F)c2c1CC[C@H]2Oc1ccc2c(c1)OC[C@H]2CC(=O)O` [Example 24, 2-((S)-6-((R)-4-(4-(3,6-dihydro-2H-pyran-4-yl)-2,6-dimethylphenyl)-7-fluoro-2,3-dihydro-1H-inden-1-yloxy)-2,3-dihydrobenzofuran-3-yl)acetic acid], the pEC50 is 8.52.

Take `Cc1cc(C2=CCN(S(C)(=O)=O)CC2)cc(C)c1-c1ccc(F)c2c1CC[C@H]2Oc1ccc2c(c1)OC[C@H]2CC(=O)O` [Example 25, 2-((S)-6-((R)-4-(2,6-dimethyl-4-(1-(methylsulfonyl)-1,2,3,6-tetrahydropyridin-4-yl)phenyl)-7-fluoro-2,3-dihydro-1H-inden-1-yloxy)-2,3-dihydrobenzofuran-3-yl)acetic acid]: the negative logarithm of the EC50 (pEC50) is 7.46.

As for `Cc1cc(OC2CN(S(C)(=O)=O)C2)cc(C)c1-c1ccc(F)c2c1CC[C@H]2Oc1ccc2c(c1)OC[C@H]2CC(=O)O` [Example 26, 2-((S)-6-((R)-4-(2,6-Dimethyl-4-(1-(methylsulfonyl)azetidin-3-yloxy)phenyl)-7-fluoro-2,3-dihydro-1H-inden-1-yloxy)-2,3-dihydrobenzofuran-3-yl)acetic acid], the negative logarithm of the EC50 (pEC50) was 7.77.

`Cc1cc(OCC2CCS(=O)(=O)C2)cc(C)c1-c1ccc(F)c2c1CC[C@H]2Oc1ccc2c(c1)OC[C@H]2CC(=O)O` (stereo partly drawn) [Example 27, 2-((3S)-6-((1R)-4-(2,6-Dimethyl-4-((1,1-dioxo-tetrahydrothiophen-3-yl)methoxy)phenyl)-7-fluoro-2,3-dihydro-1H-inden-1-yloxy)-2,3-dihydrobenzofuran-3-yl)acetic acid] gave a pEC50 of 8.05.

As for `Cc1cc(OCC2CCS(=O)(=O)CC2)cc(C)c1-c1ccc(F)c2c1CC[C@H]2Oc1ccc2c(c1)OC[C@H]2CC(=O)O` [Example 28, 2-((S)-6-((R)-4-(2,6-Dimethyl-4-((1,1-dioxo-tetrahydro-2H-thiopyran-4-yl)methoxy)phenyl)-7-fluoro-2,3-dihydro-1H-inden-1-yloxy)-2,3-dihydrobenzofuran-3-yl)acetic acid], the pEC50 is 8.22.

Turning to `Cc1cc(OCC2CN(S(C)(=O)=O)C2)cc(C)c1-c1ccc(F)c2c1CC[C@H]2Oc1ccc2c(c1)OC[C@H]2CC(=O)O` [Example 29, 2-((S)-6-((R)-4-(2,6-Dimethyl-4-((1-(methylsulfonyl)azetidin-3-yl)methoxy)phenyl)-7-fluoro-2,3-dihydro-1H-inden-1-yloxy)-2,3-dihydrobenzofuran-3-yl)acetic acid], the negative-log EC50 (pEC50) is 7.96.

Compound `CCS(=O)(=O)N1CC(COc2cc(C)c(-c3ccc(F)c4c3CC[C@H]4Oc3ccc4c(c3)OC[C@H]4CC(=O)O)c(C)c2)C1` [Example 30, 2-((S)-6-((R)-4-(4-((1-(Ethylsulfonyl)azetidin-3-yl)methoxy)-2,6-dimethylphenyl)-7-fluoro-2,3-dihydro-1H-inden-1-yloxy)-2,3-dihydrobenzofuran-3-yl)acetic acid] gave a negative-log EC50 (pEC50) of 8.15.

Compound `Cc1cc(OCC2CN(S(=O)(=O)C(C)C)C2)cc(C)c1-c1ccc(F)c2c1CC[C@H]2Oc1ccc2c(c1)OC[C@H]2CC(=O)O` [Example 31, 2-((S)-6-((R)-7-Fluoro-4-(4-((1-(isopropylsulfonyl)azetidin-3-yl)methoxy)-2,6-dimethylphenyl)-2,3-dihydro-1H-inden-1-yloxy)-2,3-dihydrobenzofuran-3-yl)acetic acid] showed a pEC50 of 7.77.

`Cc1cc(OC2CCS(=O)(=O)CC2)cc(C)c1-c1ccc(F)c2c1CC[C@H]2Oc1ccc2c(c1)OC[C@H]2CC(=O)O` [Example 32, 2-((S)-6-((R)-4-(2,6-Dimethyl-4-(1,1-dioxo-tetrahydro-2H-thiopyran-4-yloxy)phenyl)-7-fluoro-2,3-dihydro-1H-inden-1-yloxy)-2,3-dihydrobenzofuran-3-yl)acetic acid] gave a negative logarithm of the EC50 (pEC50) of 7.59.

`Cc1cc(O[C@H]2C[C@@H](N(C)S(C)(=O)=O)C2)cc(C)c1-c1ccc(F)c2c1CC[C@H]2Oc1ccc2c(c1)OC[C@H]2CC(=O)O` [Example 33, 2-((S)-6-((R)-4-(2,6-Dimethyl-4-((1s,3S)-3-(N-methylmethylsulfonamido)cyclobutoxy)phenyl)-7-fluoro-2,3-dihydro-1H-inden-1-yloxy)-2,3-dihydrobenzofuran-3-yl)acetic acid] gave a pEC50 of 7.92.

The compound `Cc1cc(O[C@H]2CCN(S(C)(=O)=O)C2)cc(C)c1-c1ccc(F)c2c1CC[C@H]2Oc1ccc2c(c1)OC[C@H]2CC(=O)O` [Example 34, 2-((S)-6-((R)-4-(2,6-Dimethyl-4-((S)-1-(methylsulfonyl)pyrrolidin-3-yloxy)phenyl)-7-fluoro-2,3-dihydro-1H-inden-1-yloxy)-2,3-dihydrobenzofuran-3-yl)acetic acid] had a pEC50 of 7.96.
